The results in this text go back to ChEMBL document CHEMBL1201862, “PubChem BioAssay data set” (2004).

Test systems include M14; 786-0; SK-MEL-28; DU-145; CCRF-CEM; NCI/ADR-RES; HL-60; ACHN; Hs-578T; OVCAR-3; HCT-15; SNB-75; IGROV-1; RPMI-8226; A549; MDA-MB-231; UO-31; KM12; MCF7; Malme-3M.
Common to all, as to assay: NCI-60 cell line screen, 48 h

Where “and” joins values, the source holds several entries; their conditions need not be identical. Equal values may be shown once.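 Method: 48-hour compound exposure of cells in 96-well plates, five concentrations, linear interpolation of endpoints. GI50 = concentration required for 50% inhibition of growth.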 Calls of active or inactive are those of the source. No stated cut-off is given here; in the data, active = GI50 up to about 1.1 µM and inactive = higher.

On to `COc1ccc(CCCCl)c(C2=NCCc3ccccc32)c1`, for which the GI50 with M14 is 71.3 µM (inactive); in the test with 786-0, 89.5 µM (inactive); in the test on SK-MEL-28, > 100 µM (inactive); in the test with DU-145, > 100 µM (inactive); in the test with CCRF-CEM, 53.6 µM (inactive); with NCI/ADR-RES, > 100 µM (inactive). Also, the GI50 was 10.4 µM (inactive) in the test on HL-60; > 100 µM (inactive) with ACHN; 20.6 µM (inactive) in the test on Hs-578T; 56.5 µM (inactive) with OVCAR-3; over 100 µM with HCT-15; 29.1 µM (inactive) in the test with SNB-75. Besides, the GI50 was 24.8 µM (inactive) in the test on IGROV-1; 2.99 µM (inactive) in the test on RPMI-8226; 44.2 µM (inactive) in the test on A549; 25.1 µM (inactive) in the test on MDA-MB-231; 66.5 µM (inactive) in the test on UO-31; 27.4 µM (inactive) in the test on KM12. Besides, in the test on MCF7, the GI50 was 38.2 µM (inactive).

For `CC(=O)OC(/C=C/c1ccccc1)P1(=O)N(CC(C)(C)C)[C@@H]2CCCC[C@H]2N1CC(C)(C)C` (some centres not stated), the GI50 in the test on M14 was 5.9 µM (inactive) and 5.24 µM (inactive); with 786-0, 9.62 µM (inactive) and 7.38 µM (inactive); in the test with SK-MEL-28, 17.7 µM (inactive) and 13.5 µM (inactive); in the test with DU-145 it was 10.4 µM (inactive) and 9.75 µM (inactive); in the test with CCRF-CEM, 4.81 µM (inactive) and 4.38 µM (inactive); with NCI/ADR-RES, 5.89 µM (inactive) and 5.11 µM (inactive). In addition, the GI50 was 5.37 µM (inactive) and 5.71 µM (inactive) in the test with HL-60; 10 µM (inactive) and 7.57 µM (inactive) in the test on ACHN; 6.92 µM (inactive) and 8.67 µM (inactive) in the test on Hs-578T; 12.3 µM (inactive) and 13.1 µM (inactive) in the test with Malme-3M; 6.75 µM and 4.97 µM in the test with HCT-15; 5.11 µM (inactive) and 6.78 µM (inactive) in the test with IGROV-1. Moreover, the GI50 is 3.1 µM (inactive) with RPMI-8226; 5.05 µM (inactive) and 4.55 µM (inactive) in the test on A549; 9.68 µM (inactive) and 7.26 µM (inactive) in the test on MDA-MB-231; 7.18 µM (inactive) and 4.19 µM (inactive) with UO-31; 6.3 µM (inactive) and 6.65 µM (inactive) in the test on KM12; 4.79 µM (inactive) and 4.61 µM (inactive) with MCF7.

`Nc1nc(O)c(Br)c(-c2cccc([N+](=O)[O-])c2)n1`: the GI50 in the test on M14 is > 38.8 µM (inactive); in the test on 786-0 it was > 100 µM (inactive); in the test on SK-MEL-28 it was > 100 µM (inactive); in the test with DU-145, > 100 µM (inactive); in the test on CCRF-CEM, > 100 µM (inactive); in the test with NCI/ADR-RES it was > 100 µM (inactive). Besides, the GI50 with HL-60 is > 71.1 µM (inactive); in the test with ACHN, > 67.9 µM (inactive); in the test on Hs-578T, > 100 µM (inactive); with OVCAR-3, > 100 µM (inactive); with HCT-15, over 100 µM; in the test on SNB-75, 55 µM (inactive). For the same compound, the GI50 in the test with IGROV-1 is > 83.8 µM (inactive); in the test with RPMI-8226 it was 37.8 µM (inactive); in the test on A549 it was > 46.9 µM (inactive); in the test with MDA-MB-231 it was > 100 µM (inactive); in the test with UO-31 it was > 62.1 µM (inactive); with KM12, > 100 µM (inactive). Besides, the GI50 in the test with MCF7 was > 49.2 µM (inactive).

With `C[n+]1c2ccccc2c(N=[N+]=[N-])c2ccccc21`, the GI50 in the test with M14 was > 10 µM (inactive); in the test on 786-0, 4.53 µM (inactive); in the test on SK-MEL-28, > 10 µM (inactive); in the test on DU-145, > 10 µM (inactive); with CCRF-CEM it was 3.33 µM (inactive); with NCI/ADR-RES, > 10 µM (inactive). Also, the GI50 in the test with HL-60 is 9.18 µM (inactive); in the test with ACHN it was 4.13 µM (inactive); with Hs-578T it was > 10 µM (inactive); in the test with OVCAR-3, > 10 µM (inactive); in the test with Malme-3M, 5.42 µM (inactive); in the test on HCT-15 it was 5.66 µM. Besides, the GI50 is 7.03 µM (inactive) in the test with IGROV-1; 5.08 µM (inactive) in the test with RPMI-8226; 6.44 µM (inactive) in the test with A549; 8.63 µM (inactive) in the test with MDA-MB-231; > 10 µM (inactive) with KM12; 6.95 µM (inactive) in the test on MCF7.

On to `CC1=CC(=O)/C(=C/NC(N)=S)C(=O)O1`, for which the GI50 in the test with M14 was > 100 µM (inactive); in the test with 786-0, > 100 µM (inactive); in the test with DU-145, > 100 µM (inactive); in the test with CCRF-CEM, 28.2 µM (inactive); with NCI/ADR-RES it was > 100 µM (inactive); in the test on HL-60, 1.72 µM (inactive). The GI50 is > 100 µM (inactive) in the test on ACHN; > 100 µM (inactive) with Hs-578T; > 100 µM (inactive) in the test on OVCAR-3; 98.4 µM with HCT-15; 48.1 µM (inactive) with SNB-75; > 100 µM (inactive) with IGROV-1. For the same compound, the GI50 in the test on A549 is > 100 µM (inactive); in the test with MDA-MB-231, > 100 µM (inactive); in the test on UO-31, 38.5 µM (inactive); in the test with KM12, > 100 µM (inactive); with MCF7, > 100 µM (inactive).

`CC(C)(C)NC(=O)C12C3C4C1C1C2C3C41C(=O)NC(C)(C)C` (configuration not stated): the GI50 in the test with M14 was > 100 µM (inactive); in the test on 786-0, > 100 µM (inactive); in the test with SK-MEL-28, > 100 µM (inactive); with DU-145, > 100 µM (inactive); in the test on CCRF-CEM, 26.4 µM (inactive); in the test on NCI/ADR-RES, > 100 µM (inactive). The GI50 with HL-60 was > 100 µM (inactive); in the test with ACHN it was > 100 µM (inactive); with Hs-578T, 32.8 µM (inactive); in the test on OVCAR-3, > 100 µM (inactive); in the test with HCT-15 it was over 100 µM; with IGROV-1, > 100 µM (inactive). Moreover, the GI50 in the test on A549, with MDA-MB-231, with UO-31, in the test on KM12 and with MCF7 was > 100 µM (inactive) in each case.

Take `CNC1(C(=O)O)CC1`: the GI50 in the test with M14, in the test with 786-0, in the test on SK-MEL-28, in the test on DU-145, in the test with CCRF-CEM and in the test on NCI/ADR-RES was > 100 µM (inactive) throughout. Moreover, the GI50 is > 100 µM (inactive) with HL-60; > 100 µM (inactive) with ACHN; > 100 µM (inactive) in the test on Hs-578T; > 100 µM (inactive) in the test with OVCAR-3; > 100 µM (inactive) in the test with Malme-3M; over 100 µM with HCT-15. Moreover, the GI50 in the test on IGROV-1, in the test with RPMI-8226, in the test on A549, in the test on MDA-MB-231, in the test with KM12 and in the test with MCF7 was > 100 µM (inactive) in each case.

Regarding `CC1OC2OC3C(OCC(O)C3O)OC(=O)[C@]34CCC(C)(C)CC3C3=CCC5[C@@]6(C)C[C@H](O)[C@H](OC7OC(CO)C(O)C(O)C7OC7OC(COC(=O)CC(C)(O)CC(=O)OC1C(O)C2O)C(O)C(O)C7O)[C@@](C)(CO)C6CC[C@@]5(C)[C@]3(C)CC4` (some centres not stated), the GI50 in the test on M14 was 1.43 µM (inactive); in the test with 786-0, 1.21 µM (inactive); in the test with SK-MEL-28, 1.5 µM (inactive); with DU-145, 1.75 µM (inactive); in the test on CCRF-CEM it was 1.51 µM (inactive); with NCI/ADR-RES, 3.01 µM (inactive). In addition, the GI50 in the test with HL-60 was 1.4 µM (inactive); with ACHN, 1.32 µM (inactive); with Hs-578T, 1.79 µM (inactive); in the test on OVCAR-3 it was 1.53 µM (inactive); in the test with HCT-15 it was 1.53 µM; in the test with SNB-75, 1.47 µM (inactive). Moreover, the GI50 in the test with IGROV-1 was 1.24 µM (inactive); with RPMI-8226 it was 1.66 µM (inactive); in the test on A549 it was 1.32 µM (inactive); in the test on MDA-MB-231, 1.56 µM (inactive); in the test on UO-31 it was 1.22 µM (inactive); in the test on KM12, 1.48 µM (inactive). In the test with MCF7, the GI50 was 4.46 µM (inactive).

With `CCOc1ccc(NCc2cc(OC)c(OC)c(OC)c2)cc1`, the GI50 in the test with M14 is 0.425 µM (active); in the test with 786-0, 1.32 µM (inactive); in the test on SK-MEL-28, 2.99 µM (inactive); with DU-145, 3.15 µM (inactive); with NCI/ADR-RES it was 0.359 µM (active); in the test on HL-60, 0.463 µM (active). In addition, the GI50 in the test with ACHN was 6.15 µM (inactive); in the test with Hs-578T it was 1.11 µM (active); with OVCAR-3, 0.388 µM (active); in the test with HCT-15, 0.303 µM; in the test with SNB-75 it was 1.96 µM (inactive); with IGROV-1, 2.4 µM (inactive). The GI50 in the test with RPMI-8226 was 1.58 µM (inactive); in the test with A549, 1.68 µM (inactive); with MDA-MB-231, 1.57 µM (inactive); with UO-31 it was 9.02 µM (inactive); with KM12, 0.319 µM (active); in the test on MCF7, 0.455 µM (active).

Turning to `NS(=O)(=O)c1ccc(Nc2c3ccccc3nc3c(C(=O)NCCCN(CCO)CCO)cccc23)cc1`, the GI50 is 24.2 µM (inactive) in the test with M14; 19.3 µM (inactive) with 786-0; 22.4 µM (inactive) with SK-MEL-28; 29.9 µM (inactive) with DU-145; 8.41 µM (inactive) in the test with CCRF-CEM; > 100 µM (inactive) in the test with NCI/ADR-RES. Moreover, the GI50 is > 10 µM (inactive) in the test on HL-60; 37.2 µM (inactive) with ACHN; 19.6 µM (inactive) in the test on Hs-578T; 24.3 µM (inactive) with OVCAR-3; 20.4 µM (inactive) in the test on Malme-3M; over 100 µM with HCT-15. In addition, the GI50 with IGROV-1 was 19.4 µM (inactive); in the test with RPMI-8226 it was 22.3 µM (inactive); with A549, 26.7 µM (inactive); with MDA-MB-231, 61.1 µM (inactive); in the test on UO-31 it was > 100 µM (inactive); with KM12, 16.7 µM (inactive). Also, the GI50 in the test on MCF7 was 4.8 µM (inactive).
